Key:
Assay in all cases: relative viability (nuclei count vs DMSO), 5 days (fraction); higher = more cells survive
[1] = compound: CC(C)N(CCCNC(=O)Nc1ccc(C(C)(C)C)cc1)C[C@H]1O[C@@H](n2ccc3c(N)ncnc32)[C@H](O)[C@@H]1O
Outline: (§1)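 On vehicle-anchored 1536-well plates, lung cancer cell lines held overnight at 37 °C were pinned with five library-drug doses (not always all listed) spaced by √10. With no medium change over 5 days, they were then fixed, permeabilised and Hoechst-stained in one step and imaged at 4×. MetaXpress counted nuclei, and viability is the median across plates of treated-well over vehicle-well nuclei. Acceptance needed control CV below 25% and at least one doubling.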

Shikonin = compound: CC(C)=CC[C@@H](O)C1=CC(=O)c2c(O)ccc(O)c2C1=O [Shikonin]
Outline: as §1

Shikonin + Alpelisib = compound: CC(C)=CC[C@@H](O)C1=CC(=O)c2c(O)ccc(O)c2C1=O [Shikonin] + Cc1nc(NC(=O)N2CCC[C@H]2C(N)=O)sc1-c1ccnc(C(C)(C)C(F)(F)F)c1 [Alpelisib] (partner 2 µM)
Outline: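 Relative viability is defined as nuclei in treated wells over nuclei in vehicle wells. Duplicate plates were run and medians reported. Lung cancer cell lines in 1536-well plates were dosed by pin tool one day after seeding, with one drug or with a fixed anchor-drug dose plus five library-drug doses (not always all listed) in √10 steps, and nuclei were counted after 5 days.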

With UMC-11 the relative viability ([1]; 0.08 µM) was 0.953, the relative viability ([1]; 0.253 µM) was 0.875 and the relative viability ([1]; 0.8 µM) was 0.82. The relative viability ([1]; 2.53 µM) was 0.999, the relative viability ([1]; 8 µM) was 1.01 and the relative viability (Shikonin; 0.01 µM) was 0.943. The relative viability (Shikonin; 0.1 µM) was 0.993, the relative viability (Shikonin; 0.3162 µM) was 1.07 and the relative viability (Shikonin; 1 µM) was 1.08. For the same cell line, the relative viability (Shikonin + Alpelisib; first compound 0.01 µM) was 0.875, the relative viability (Shikonin + Alpelisib; first compound 0.1 µM) was 1.08 and the relative viability (Shikonin + Alpelisib; first compound 0.3162 µM) was 0.996. The relative viability (Shikonin + Alpelisib; first compound 1 µM) was 1.18.

Source: the supplement of paper PMC10307832
